# Data published in US20260048151A1, “HEMICYANINE PUSH-PULL DYES BASED ON CHROMENE ELECTRON DONORS” (UNIVERSITY OF CONNECTICUT, priority 2022, published 2026).
# Assays:
# [1] = Voltage sensitivity on voltage-clamped hemispherical lipid bilayer; settings: for Ex (excitation wavelength of optimal voltage sensitivity) / Voltage Sensitivity ΔF/F per 100 mV: long pass emission filter; for Voltage Sensitivity ΔF/F per 100 mV: magnitude at optimal Ex/Em
# Description: It is known that optimal voltage sensitivity can be obtained by measuring the compounds on a voltage-clamped hemispherical bilayer apparatus. The apparatus can include a patch-clamp amplifier, such as a HEKA EPC-8 patch-clamp amplifier. Measurements can be obtained by stepping the membrane potential between two different potentials for a set time lapse. such as, for example, −110 and −60 mV every 10 ms.
# Testing VSDs in a voltage-clamped hemispherical lipid bilayer allows one to determine the sensitivity of the VSDs as a function of excitation wavelength. This system has a Teflon tube filled with KCl and is immersed in a KCl solution in a cuvette. A lipid bubble is blown at the tip of the tube and spontaneously forms a bilayer membrane. The VSD to be tested is introduced on one side of the bilayer, usually in the cuvette. Electrodes in the tube and in the cuvette allow the imposition of a voltage across the membrane and a tungsten lamp coupled to a monochromator allows excitation wavelength dependence of the fluorescence response to voltage steps to be determined. This screening approach has allows for the comparison of the efficacy of newly developed VSDs in a well-controlled, consistent manner and to also determine excitation and emission wavelengths with optimal.
# Voltage sensitivities of 2a as a function of voltage is shown in FIG. 3A for excitation at 730 nm and 570 nm. The voltage response is linear over the range of −100 mV to +100 mV; 570 nm is slightly to the blue of the isosbestic point, accounting for the weak but inverted sensitivity at this wavelength. […] This opposite polarity at the blue and red edges underlies the ability to use electrochromic hemicyanine dyes for dual-wavelength ratio imaging. The precise location of the isosbestic point in the excitation wavelength depends on the emission filter used because the emission spectrum is also voltage dependent for hemicyanine dyes.
# The magnitude and wavelengths of the optimal voltage sensitivities of all the VSDs on the voltage-clamped hemispherical bilayer are included in the third column of Table 1.
# [2] = Absorption and emission spectra, fluorescence quantum efficiency in EtOH, PBS and lipid vesicles (MLV); format: physicochemical; settings: for Fluorescence quantum efficiency (FQE): in lipid vesicle suspensions; for emission maximum: membrane-bound (MLV)
# Description: FIGS. 2A-2C are plots showing absorption and emission spectra of 2a, in comparison with ElectroFluor630, in various solvent environments: MLV, EtOH, and PBS. Multilamellar lipid vesicle suspension (MLV) was prepared by sonicating soybean phosphatidylcholine in PBS buffer (2 mg/mL) to mimic the cell membrane environment. The emission spectra in ethanol and PBS buffer were scaled 10 and 20 times respectively relative to the emission spectra in MLV. Excitation wavelength is 580 nm for emission spectra.
# All chemicals were purchased from commercial sources (Sigma Aldrich, Acros, TCI America, Combi-Blocks, and others) and used without further purification. Column chromatography was generally performed on COMBIFLASH NextGen 300 using normal phase silica columns except that for some final dye products amine silica columns were used. Thin layer chromatography (TLC) was carried out on EM 60 F-254 plastic TLC plates. NMR spectra were recorded on Varian 400 MHz, 500 MHz, and 800 MHz instruments at the UConn Heath Structural Biology Facility. All spectra are referenced internally to TMS or residual solvent signals. Electrospray ionization (ESI) high-resolution mass spectra (HRMS) were obtained on a QStar Elite (AB Sciex) at the Department of Chemistry, University of Connecticut. UV/Vis absorption spectra were recorded on a UV-Visible spectrophotometer (Shimadzu, UV-1601PC) and fluorescence emission spectra on a Horiba Fluorolog spectrofluorometer (Horiba, Inc., Edison, NJ). Fluorescence quantum yield for dyes was determined by a relative method using Rhodamine 6G (excited at 480 nm, FQY=0.95 in EtOH) or cresyl violet (excited at 580 nm, FQY=0.54 in MeOH) as the references.
# Absorbance and the fluorescence properties of the new VSDs were determined. The absorption and emission spectra for 2a, together with ElectroFluor630, in aqueous buffer (PBS), ethanol, and when intercalated in the membrane of lipid vesicles are shown in FIGS. 2A-C. […] This is particularly advantageous for fluorescence imaging because background fluorescence from unbound dye is negligible. Another characteristic of the hemicyanine VSDs that is preserved by 2a in FIGS. 2A-C is the large Stokes shift between the excitation and emission maxima. 125 nm for the membrane-bound dye. This is also a benefit for fluorescence detection and imaging, as the fluorescence can be readily filtered from scattered exciting light. The broad wavelength window afforded by the spectra is also an important benefit for the design of experiments with multiple fluorescent sensors. For comparative purposes, certain VSDs are shown below.
# As expected, the spectra are largely insensitive to alkyl substitution. Table 1 also includes data for ElectroFluor630 (aka Di-4-ANEQ (F) PTEA) for comparison. The absorption maxima of 2a in ethanol (EtOH), aqueous buffer (PBS) and when bound to lipid membranes (multilamellar vesicles, MLV) are red shifted by 77 nm, 63 nm and 63 nm, respectively, relative to ElectroFluor630, which is isostructural to 2a. […] The absorption and emission spectra of 2a, 2b, and 2c are all shifted to the red by 50-65 nm relative to ElectroFluor630.
# [3] = Optimal excitation wavelengths of existing VSDs; format: physicochemical
# in-vivo pig heart = settings: translational in-vivo pig model (Lee, et al., 2019); cited from earlier work
# [4] = Voltage sensitivity on voltage-clamped hemispherical lipid bilayer; settings: 560 nm excitation
# AtT20 cells = test: Voltage sensitivity in patch clamped tissue culture cells; format: cell-based
# Description: We were motivated by separate requests from a company, Tara Biosystems, and the academic lab of Dr. Jack Rogers (see letters of support), for cardiac applications requiring recording over the course of longer than a full day. This will require dyes with both improved persistence (i.e. long washout times) and photostability (to allow for recording over long periods without appreciable bleaching or phototoxicity). We addressed these requirements via synthesis of a fluorinated chromophore (to improve photostability) with lengthened alkyl chains (to improve the strength of membrane binding and therefore persistence); we are calling it ElectroFluor630p™ (630 for the optimal excitation wavelength and p for persistent). ElectroFluor630p™ is similar to ElectroFluor630™, except that the butyl chains have been replaced with pentyl chains. We characterized this new VSD on both our voltage clamped hemispherical bilayer and on AtT20 cells. […] In addition, we will follow-up on these measurements extending the excitation wavelengths to include 660 nm. This is expected to further increase sensitivity and is an important wavelength for commercialization since the Photoswitch Bolt system, which is being sold for high-throughput cardiac safety screening studies (see letter from Stephen Smith), uses 660 nm laser excitation.
# Turning to Preliminary Results for Aim 2. we have already described our characterization of a new VSD in patch clamped tissue culture cells in FIG. 2.
# [5] = in MLV (multilamellar lipid vesicles)
Compound,Ex (excitation wavelength of optimal voltage sensitivity) [1] [nm],Voltage Sensitivity ΔF/F per 100 mV [1] [%],absorption maximum ([2]; in EtOH) [nm],"absorption maximum [2, 5] [nm]",absorption maximum ([2]; in PBS) [nm],Fluorescence quantum efficiency (FQE) [2],emission maximum [2] [nm],also measured
CCCCCN(CCCCC)c1ccc2c(c1)OCC(/C=C/c1cc[n+](CCCS(=O)(=O)[O-])cc1F)=C2 [1b],640,8,580,540,552,0.25,677,–
"CCCCN(CCCC)c1ccc2cc(/C=C/c3c(F)c[n+](CCC[N+](CC)(CC)CC)c4ccccc34)ccc2c1.[Br-].[Br-] [ElectroFluor630, Di-4-ANEQ (F) PTEA, reference compound]",645,12,618,547,565,0.10,686,"optimal dual excitation, lower wavelength [3]: 470 nm; optimal dual excitation, upper wavelength [3]: 630 nm; phototoxicity (in-vivo pig heart): minimal phototoxicity"
CCCCN(CCCC)c1ccc2c(c1)OCC(/C=C/c1cc[n+](CCCS(=O)(=O)[O-])cc1F)=C2 [1a],660,12,577,540,546,0.31,673,shift to the red of results relative to the FIG. 1 dye [1]: ~30 nm
CCCCCN(CCCCC)c1ccc2c(c1)OCC(/C=C/c1c(F)c[n+](CCC[N+](CC)(CC)CC)c3ccccc13)=C2.[Br-].[Br-] [2b],720,10,700,611,628,0.10,736,–
CCCCCCN(CCCCCC)c1ccc2c(c1)OCC(/C=C/c1cc[n+](CCCS(=O)(=O)[O-])cc1F)=C2 [1c],630,11,579,534,515,0.22,675,–
CCCCN(CCCC)c1ccc2cc(/C=C/C=C/c3cc[n+](CCC[N+](C)(C)C)c4ccccc34)ccc2c1.[Br-].[Br-] [di-4-ANBDQPQ],–,–,–,–,–,–,–,optimal excitation [3]: 630 nm
CCCCN(CCCC)c1ccc2c(c1)OCC(/C=C/c1c(F)c[n+](CCC[N+](CC)(CC)CC)c3ccccc13)=C2.[Br-].[Br-] [2a],730,17,701,614,633,0.10,739,"ΔF/F/100 mV ([1]; 730 nm excitation): −17%; excitation wavelength of voltage sensitivity higher than any previous VSDs ([1]; at 730 nm): ~100 nm; voltage response of fluorescence ([1]; range −100 mV to +100 mV, excitation 730 nm and 570 nm): linear; red shift of absorption maximum relative to ElectroFluor630 ([2]; bound to lipid membranes (MLV)): 63 nm; red shift of absorption maximum relative to ElectroFluor630 ([2]; in aqueous buffer (PBS)): 63 nm; red shift of absorption maximum relative to ElectroFluor630 ([2]; in ethanol (EtOH)): 77 nm; fluorescence enhancement upon binding to lipid membranes ([2]; lipid membranes vs unbound dye): over 100 fold; fluorescence quantum efficiency despite bathochromic shift ([2]; membrane bound, vs ElectroFluor630): not diminished; Stokes shift between excitation and emission maxima ([2]; membrane-bound dye): 125 nm; ΔF/F/100 mV [4]: +3%"
"CCCCN(CCCC)c1ccc2cc(/C=C/c3cc[n+](CCCS(=O)(=O)[O-])cc3)ccc2c1 [Di-4-ANEPPS, reference compound]",550,10,496,464,447,0.30,617,–
"CCCCCN(CCCCC)c1ccc2cc(/C=C/c3c(F)c[n+](CCC[N+](CC)(CC)CC)c4ccccc34)ccc2c1.[Br-].[Br-] [ElectroFluor630p, Di-5-ANEQ(F)PTEA]",–,–,–,–,–,–,–,ΔF/F/100 mV (AtT20 cells; blue-edge excitation): +5.2%; ΔR/R/100 mV (ratio blue/red excitation) (AtT20 cells; ratio measurement): 29.3%; ΔF/F/100 mV (AtT20 cells; red-edge excitation): −19.4%
